Test results published in ChEMBL document CHEMBL4680214, “Fluorinated derivatives of 2-phenyl-3-hydroxy-4(1H)-quinolinone as tubulin polymerization inhibitors” (Eur J Med Chem, 2020).

Experiments:
[1] = test system: CCRF-CEM; assay: Cytotoxicity against human CCRF-CEM cells incubated for 72 hrs by MTS assay; format: functional, cell-based
[2] = test system: CCRF-CEM; assay: Cytotoxicity against human daunorubicine-resistant CCRF-CEM cells incubated for 72 hrs by MTS assay; format: functional, cell-based
[3] = test system: K562; assay: Cytotoxicity against human K562 cells incubated for 72 hrs by MTS assay; format: functional, cell-based; conditions: K562, 72 h
[4] = test system: K562; assay: Cytotoxicity against human paclitaxel-resistant K562 cells incubated for 72 hrs by MTS assay; format: functional, cell-based; conditions: K562, 72 h
[5] = test system: HCT-116; assay: Cytotoxicity against human HCT-116 cells incubated for 72 hrs by MTS assay; format: functional, cell-based; conditions: HCT-116, 72 h
[6] = test system: HCT-116; assay: Cytotoxicity against p53-deficient human HCT-116 cells incubated for 72 hrs by MTS assay; format: functional, cell-based; conditions: HCT-116, 72 h
[7] = test system: A549; assay: Cytotoxicity against human A549 cells incubated for 72 hrs by MTS assay; format: functional, cell-based; conditions: A549, 72 h
[8] = test system: BJ; assay: Cytotoxicity against human BJ cells incubated for 72 hrs by MTS assay; format: cell-based
[9] = test system: CCRF-CEM; assay: Cell cycle arrest in human CCRF-CEM cells assessed as accumulation at sub-G1 phase at IC50 measured after 24 hrs by propidium iodide staining based flow cytometry (reference value: 2%); format: functional
[10] = test system: CCRF-CEM; assay: Cell cycle arrest in human CCRF-CEM cells assessed as accumulation at sub-G1 phase at 5 times IC50 measured after 24 hrs by propidium iodide staining based flow cytometry (reference value: 2%); format: functional
[11] = test system: CCRF-CEM; assay: Cell cycle arrest in human CCRF-CEM cells assessed as accumulation at G0/G1 phase at IC50 measured after 24 hrs by propidium iodide staining based flow cytometry (reference value: 35.2%); format: functional
[12] = test system: CCRF-CEM; assay: Cell cycle arrest in human CCRF-CEM cells assessed as accumulation at G0/G1 phase at 5 times IC50 measured after 24 hrs by propidium iodide staining based flow cytometry (reference value: 35.2%); format: functional
[13] = test system: CCRF-CEM; assay: Cell cycle arrest in human CCRF-CEM cells assessed as accumulation at S phase at IC50 measured after 24 hrs by propidium iodide staining based flow cytometry (reference value: 42.2%); format: functional
[14] = test system: CCRF-CEM; assay: Cell cycle arrest in human CCRF-CEM cells assessed as accumulation at S phase at 5 times IC50 measured after 24 hrs by propidium iodide staining based flow cytometry (reference value: 42.2%); format: functional
[15] = test system: CCRF-CEM; assay: Cell cycle arrest in human CCRF-CEM cells assessed as accumulation at G2/M phase at IC50 measured after 24 hrs by propidium iodide staining based flow cytometry (reference value: 22.6%); format: functional
[16] = test system: CCRF-CEM; assay: Cell cycle arrest in human CCRF-CEM cells assessed as accumulation at G2/M phase at 5 times IC50 measured after 24 hrs by propidium iodide staining based flow cytometry (reference value: 22.6%); format: functional
[17] = test system: CCRF-CEM; assay: Cell cycle arrest in human CCRF-CEM cells assessed as phosphorylation of histone H3 at Ser10 at IC50 measured after 24 hrs by propidium iodide staining based flow cytometry (reference value: 2.0%); format: functional
[18] = test system: CCRF-CEM; assay: Cell cycle arrest in human CCRF-CEM cells assessed as phosphorylation of histone H3 at Ser10 at 5 times IC50 measured after 24 hrs by propidium iodide staining based flow cytometry (reference value: 2.0%); format: functional
[19] = test system: CCRF-CEM; assay: Cell cycle arrest in human CCRF-CEM cells assessed as BrdU incorporation at IC50 measured after 24 hrs by propidium iodide/immunostaining based flow cytometry (reference value: 60.0%); format: functional
[20] = test system: CCRF-CEM; assay: Cell cycle arrest in human CCRF-CEM cells assessed as BrdU incorporation at 5 times IC50 measured after 24 hrs by propidium iodide/immunostaining based flow cytometry (reference value: 60.0%); format: functional
[21] = test system: CCRF-CEM; assay: Cell cycle arrest in human CCRF-CEM cells assessed as BrU incorporation at IC50 measured after 24 hrs by propidium iodide/immunostaining based flow cytometry (reference value: 52.2%); format: functional
[22] = test system: CCRF-CEM; assay: Cell cycle arrest in human CCRF-CEM cells assessed as BrU incorporation at 5 times IC50 measured after 24 hrs by propidium iodide/immunostaining based flow cytometry (reference value: 52.2%); format: functional
[23] = species on record: Sus scrofa; assay: Inhibition of porcine brain tubulin polymerization assessed as Vmax of polymerization at 10 umol/L measured at 60 secs interval for 30 mins by turbidometric method; conditions: dose 10.0 µmol/L

Question: Which IC50 [1] does the source give for O=c1c(O)c(-c2ccccc2)[nH]c2cc(F)c(N3CCOCC3)cc12 here?
Answer: > 50 µM

Question: And the IC50 [2]?
Answer: 11.7 µM

Question: And the IC50 [3]?
Answer: 19.3 µM

Question: And the IC50 [4]?
Answer: 12.8 µM

Question: What about the IC50 [5] of the same compound?
Answer: 5.2 µM

Question: What about the IC50 [6] of the same compound?
Answer: > 50 µM

Question: What about the IC50 [7] of the same compound?
Answer: 13.6 µM

Question: And the IC50 [8]?
Answer: > 50 µM

Question: With O=c1c(O)c(-c2ccccc2)[nH]c2cc(F)ccc12 as the compound, how does the IC50 [1] read?
Answer: 17.8 µM

Question: And the IC50 [2]?
Answer: 17.5 µM

Question: And the IC50 [3]?
Answer: 21.7 µM

Question: And the IC50 [4]?
Answer: 21.4 µM

Question: What about the IC50 [5] of the same compound?
Answer: > 50 µM

Question: What about the IC50 [6] of the same compound?
Answer: 43.9 µM

Question: And the IC50 [7]?
Answer: 19.5 µM

Question: And the IC50 [8]?
Answer: > 50 µM

Question: O=c1c(O)c(-c2ccc(F)cc2)[nH]c2ccccc12 was tested. Which IC50 [1] did it give?
Answer: 2.4 µM

Question: And the IC50 [2]?
Answer: 9.4 µM

Question: What about the IC50 [3] of the same compound?
Answer: 40.4 µM

Question: And the IC50 [4]?
Answer: 8.6 µM

Question: And the IC50 [5]?
Answer: 34 µM

Question: What about the IC50 [6] of the same compound?
Answer: 36.5 µM

Question: What about the IC50 [7] of the same compound?
Answer: 18.1 µM

Question: What about the IC50 [8] of the same compound?
Answer: > 50 µM

Question: What about the Activity [9] of the same compound?
Answer: 4.4%

Question: What about the Activity [10] of the same compound?
Answer: 8.4%

Question: And the Activity [11]?
Answer: 39.6%

Question: And the Activity [12]?
Answer: 45.9%

Question: And the Activity [13]?
Answer: 24.2%

Question: What about the Activity [14] of the same compound?
Answer: 13.5%

Question: What about the Activity [15] of the same compound?
Answer: 36.2%

Question: What about the Activity [16] of the same compound?
Answer: 40.7%

Question: What about the Activity [17] of the same compound?
Answer: 1.5%

Question: And the Activity [18]?
Answer: 1.6%

Question: And the Activity [19]?
Answer: 35.5%

Question: And the Activity [20]?
Answer: 25.2%

Question: And the Activity [21]?
Answer: 31.3%

Question: And the Activity [22]?
Answer: 32.1%

Question: What does the source list for O=c1c(O)c(-c2ccccc2)[nH]c2cc(F)c(N3CCN(CCOCCO)CC3)cc12?
Answer: IC50 [1]: 19.8 µM; IC50 [2]: > 50 µM; IC50 [3]: 47.7 µM; IC50 [4]: > 50 µM; IC50 [5]: > 50 µM; IC50 [6]: 29.4 µM; IC50 [7]: > 50 µM; IC50 [8]: > 50 µM

Question: Which IC50 [1] does the source give for O=c1c(O)c(-c2ccccc2)[nH]c2ccc(F)cc12 here?
Answer: 17.8 µM

Question: What about the IC50 [2] of the same compound?
Answer: 15.3 µM

Question: And the IC50 [3]?
Answer: 18.8 µM

Question: And the IC50 [4]?
Answer: 20.3 µM

Question: What about the IC50 [5] of the same compound?
Answer: > 50 µM

Question: And the IC50 [6]?
Answer: 17.4 µM

Question: And the IC50 [7]?
Answer: 18.8 µM

Question: What about the IC50 [8] of the same compound?
Answer: > 50 µM

Question: What does the source list for O=c1c(O)c(-c2ccccc2)[nH]c2cc(F)c(F)cc12?
Answer: IC50 [1]: 12.6 µM; IC50 [2]: 12.8 µM; IC50 [3]: 18.9 µM; IC50 [4]: 17.4 µM; IC50 [5]: 15.1 µM; IC50 [6]: 22.6 µM; IC50 [7]: 18.2 µM; IC50 [8]: > 50 µM

Question: What does the source list for O=c1c(O)c(-c2ccccc2)[nH]c2cc(F)cc(F)c12?
Answer: IC50 [1]: 4.6 µM; IC50 [2]: 18 µM; IC50 [3]: 21.6 µM; IC50 [4]: 19.8 µM; IC50 [5]: 22.5 µM; IC50 [6]: > 50 µM; IC50 [7]: 19.6 µM; IC50 [8]: > 50 µM; Activity [9]: 0.8%; Activity [10]: 1.4%; Activity [11]: 33%; Activity [12]: 26.6%; Activity [13]: 48.4%; Activity [14]: 51.6%; Activity [15]: 18.6%; Activity [16]: 21.8%; Activity [17]: 2.1%; Activity [18]: 0.9%; Activity [19]: 65.7%; Activity [20]: 79%; Activity [21]: 57.2%; Activity [22]: 53.7%

Question: Which IC50 [1] does the source give for O=c1c(O)c(-c2ccccc2)[nH]c2c(F)c(F)c(F)c(F)c12 here?
Answer: 19.5 µM

Question: What about the IC50 [2] of the same compound?
Answer: > 50 µM

Question: What about the IC50 [3] of the same compound?
Answer: > 50 µM

Question: What about the IC50 [4] of the same compound?
Answer: 16.8 µM

Question: And the IC50 [5]?
Answer: > 50 µM

Question: What about the IC50 [6] of the same compound?
Answer: > 50 µM

Question: And the IC50 [7]?
Answer: > 50 µM

Question: And the IC50 [8]?
Answer: > 50 µM

Question: Which IC50 [1] does the source give for O=c1c(O)c(-c2ccccc2F)[nH]c2ccccc12 here?
Answer: 17.4 µM

Question: And the IC50 [2]?
Answer: 50 µM

Question: And the IC50 [3]?
Answer: 33.7 µM

Question: What about the IC50 [4] of the same compound?
Answer: 22.2 µM

Question: What about the IC50 [5] of the same compound?
Answer: 35.1 µM

Question: And the IC50 [6]?
Answer: 34.2 µM

Question: And the IC50 [7]?
Answer: 31.7 µM

Question: What about the IC50 [8] of the same compound?
Answer: > 50 µM

Question: Which Vmax (milli optical density/minute) [23] does the source give for COC(=O)Nc1nc2cc(C(=O)c3cccs3)ccc2[nH]1 here?
Answer: 7.6

Question: CC(=O)O[C@H]1C(=O)[C@@]2(C)[C@H]([C@H](OC(=O)c3ccccc3)[C@]3(O)C[C@H](OC(=O)[C@H](O)[C@@H](NC(=O)c4ccccc4)c4ccccc4)C(C)=C1C3(C)C)[C@]1(OC(C)=O)CO[C@@H]1C[C@@H]2O was tested. Which Vmax (milli optical density/minute) [23] did it give?
Answer: 63.3

Question: How did the IC50 [1] turn out when O=c1c(O)c(-c2cccc(F)c2)[nH]c2ccccc12 was run?
Answer: 7.3 µM

Question: What about the IC50 [2] of the same compound?
Answer: 50 µM

Question: What about the IC50 [3] of the same compound?
Answer: 12.9 µM

Question: What about the IC50 [4] of the same compound?
Answer: 7.5 µM

Question: And the IC50 [5]?
Answer: 27.1 µM

Question: What about the IC50 [6] of the same compound?
Answer: 50 µM

Question: And the IC50 [7]?
Answer: 13.1 µM

Question: And the IC50 [8]?
Answer: > 50 µM

Question: And the Activity [9]?
Answer: 5.4%

Question: And the Activity [10]?
Answer: 15.9%

Question: And the Activity [11]?
Answer: 34.9%

Question: What about the Activity [12] of the same compound?
Answer: 52.6%

Question: What about the Activity [13] of the same compound?
Answer: 32.6%

Question: What about the Activity [14] of the same compound?
Answer: 19.9%

Question: And the Activity [15]?
Answer: 32.6%

Question: And the Activity [16]?
Answer: 27.5%

Question: And the Activity [17]?
Answer: 1%

Question: And the Activity [18]?
Answer: 0.2%

Question: What about the Activity [19] of the same compound?
Answer: 26.7%

Question: And the Activity [20]?
Answer: 22.4%

Question: What about the Activity [21] of the same compound?
Answer: 33.7%

Question: What about the Activity [22] of the same compound?
Answer: 3.8%
